The results in this text go back to publication PMC9229843, “Cancer-Related Somatic Mutations in Transmembrane Helices Alter Adenosine A1 Receptor Pharmacology” (Molecules, 2022).

For one assay, the target named is T1, hA1AR G279S^7.44 (Homo sapiens, UniProt P30542, G279S).
T1 sequence (P30542 1-326 G279S): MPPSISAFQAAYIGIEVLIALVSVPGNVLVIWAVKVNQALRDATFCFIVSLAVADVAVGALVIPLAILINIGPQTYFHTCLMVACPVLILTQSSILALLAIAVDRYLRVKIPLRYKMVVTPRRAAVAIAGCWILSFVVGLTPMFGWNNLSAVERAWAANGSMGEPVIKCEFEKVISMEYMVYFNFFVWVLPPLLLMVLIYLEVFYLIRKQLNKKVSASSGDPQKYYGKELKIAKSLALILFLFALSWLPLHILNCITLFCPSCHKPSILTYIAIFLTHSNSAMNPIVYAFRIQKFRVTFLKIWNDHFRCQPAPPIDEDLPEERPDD
The following applies: [35S]GTPγS; ratio over basal activity of wild type hA1AR. As for the experimental part:
(§1) Transient transfection of CHO cells with wild type or mutated hA1AR plasmid constructs was performed using a polyethylenimine (PEI) method. Cells were seeded in 10-cm culture dishes to achieve 50–60% confluency 24 h prior to transfection. On the day of transfection, cells were transfected with a PEI: DNA ratio of 3:1 and a plasmid DNA amount of 10 μg/dish. Moreover, 24 h post-transfection, the medium was refreshed, and 48 h after transfection, cells were collected and membranes were prepared as previously described. Membranes were aliquoted in 250 or 100 μL and stored at −80 °C. Membrane protein concentrations were determined using the BCA method.
(§2) [^35S]GTPγS binding assays were adapted from a previously published method. […] Then, 20 µL of [^35S]GTPγS (final concentration of 0.3 nM) was added to each well, followed by 90 min of incubation at 25 °C. Incubations were terminated and filter-bound radioactivity was measured as described above.
(§3) All experimental data were analyzed by GraphPad Prism 7.0 or 8.0 (GraphPad Software Inc., San Diego, CA, USA). Data from yeast liquid growth and [^35S]GTPγS binding assays were analyzed by non-linear regression using “log (agonist) vs. response (three parameters)” or “log (inhibitor) vs. response (three parameters)” to obtain potency (EC50), inhibitory potency (IC50), and efficacy (Emax or Imax) values. The radioligand displacement curves were obtained from a statistically preferred one-site or two-site binding model. pKi values were calculated from pIC50 values using the Cheng–Prusoff equation, where KD values were obtained from the homologous competition assays from this study and calculated by non-linear regression using “one site–homologous” [62].
On the technique in general: GTPγS is a poorly hydrolysed GTP analogue; its binding reports G protein activation.

For a further assay, the target named is T2, hA1AR H78L^3.23 (Homo sapiens, UniProt P30542, H78L).
T2 sequence (P30542 1-326 H78L): T1 sequence (P30542 1-326 G279S) with H78L, S279G
The following applies: [35S]GTPγS; ratio over basal activity of wild type hA1AR. The procedure: as §1, §2, §3

Another assay deals with T3, hA1AR L134F^4.52 (Homo sapiens, UniProt P30542, L134F).
T3 sequence (P30542 1-326 L134F): T1 sequence (P30542 1-326 G279S) with L134F, S279G
The following applies: [35S]GTPγS; ratio over basal activity of wild type hA1AR. As for the experimental part: as §1, §2, §3

For a further assay, the target named is T4, hA1AR S246T^6.47 (Homo sapiens, UniProt P30542, S246T).
T4 sequence (P30542 1-326 S246T): T1 sequence (P30542 1-326 G279S) with S246T, S279G
The following applies: [35S]GTPγS; ratio over basal activity of wild type hA1AR. As for the experimental part:
as §1, §2, §3

The next assay addresses T5, hA1AR W188C^5.46 (Homo sapiens, UniProt P30542, W188C).
T5 sequence (P30542 1-326 W188C): T1 sequence (P30542 1-326 G279S) with W188C, S279G
As for the experimental part:
as §1, §2, §3

A further assay concerns the target T6, wild type hA1AR (Homo sapiens, UniProt P30542).
T6 sequence (P30542 1-326): T1 sequence (P30542 1-326 G279S) with S279G
The following applies: [35S]GTPγS; ratio over basal activity of wild type hA1AR. As for the experimental part:
as §1, §2, §3

Structures are written as SMILES. Where a chain is given by its changes, count along the chain named.

Take `OC[C@H]1O[C@@H](n2cnc3c(NC4CCCC4)ncnc32)[C@H](O)[C@@H]1O` [CPA, N^6-cyclopentyladenosine]: the Emax amounted to 1.57 ± 0.20 at hA1AR G279S^7.44; 1.40 ± 0.10 at hA1AR H78L^3.23; 1.48 ± 0.24 at hA1AR L134F^4.52; 1.21 ± 0.10 on hA1AR S246T^6.47; 1.94 ± 0.02 on hA1AR W188C^5.46 ([35S]GTPγS, ratio over basal activity of wild type hA1AR); 1.48 ± 0.13 on wild type hA1AR. For the same compound, the “decrease in the potency value versus wild type” value at hA1AR W188C^5.46 (mammalian system) came to 10 fold.
